From ChEMBL document CHEMBL1201862, “PubChem BioAssay data set” (2004)
Activity calls are given as the source filed them. Cut-off read from the data, not from the text of the source, for most assays here: actives have a measured IC50 and inactives only a lower limit.

Experiments:
[1] = target: T1, Apoptotic protease-activating factor 1 (Homo sapiens, UniProt O14727); type: functional
T1 sequence (O14727 whole entry): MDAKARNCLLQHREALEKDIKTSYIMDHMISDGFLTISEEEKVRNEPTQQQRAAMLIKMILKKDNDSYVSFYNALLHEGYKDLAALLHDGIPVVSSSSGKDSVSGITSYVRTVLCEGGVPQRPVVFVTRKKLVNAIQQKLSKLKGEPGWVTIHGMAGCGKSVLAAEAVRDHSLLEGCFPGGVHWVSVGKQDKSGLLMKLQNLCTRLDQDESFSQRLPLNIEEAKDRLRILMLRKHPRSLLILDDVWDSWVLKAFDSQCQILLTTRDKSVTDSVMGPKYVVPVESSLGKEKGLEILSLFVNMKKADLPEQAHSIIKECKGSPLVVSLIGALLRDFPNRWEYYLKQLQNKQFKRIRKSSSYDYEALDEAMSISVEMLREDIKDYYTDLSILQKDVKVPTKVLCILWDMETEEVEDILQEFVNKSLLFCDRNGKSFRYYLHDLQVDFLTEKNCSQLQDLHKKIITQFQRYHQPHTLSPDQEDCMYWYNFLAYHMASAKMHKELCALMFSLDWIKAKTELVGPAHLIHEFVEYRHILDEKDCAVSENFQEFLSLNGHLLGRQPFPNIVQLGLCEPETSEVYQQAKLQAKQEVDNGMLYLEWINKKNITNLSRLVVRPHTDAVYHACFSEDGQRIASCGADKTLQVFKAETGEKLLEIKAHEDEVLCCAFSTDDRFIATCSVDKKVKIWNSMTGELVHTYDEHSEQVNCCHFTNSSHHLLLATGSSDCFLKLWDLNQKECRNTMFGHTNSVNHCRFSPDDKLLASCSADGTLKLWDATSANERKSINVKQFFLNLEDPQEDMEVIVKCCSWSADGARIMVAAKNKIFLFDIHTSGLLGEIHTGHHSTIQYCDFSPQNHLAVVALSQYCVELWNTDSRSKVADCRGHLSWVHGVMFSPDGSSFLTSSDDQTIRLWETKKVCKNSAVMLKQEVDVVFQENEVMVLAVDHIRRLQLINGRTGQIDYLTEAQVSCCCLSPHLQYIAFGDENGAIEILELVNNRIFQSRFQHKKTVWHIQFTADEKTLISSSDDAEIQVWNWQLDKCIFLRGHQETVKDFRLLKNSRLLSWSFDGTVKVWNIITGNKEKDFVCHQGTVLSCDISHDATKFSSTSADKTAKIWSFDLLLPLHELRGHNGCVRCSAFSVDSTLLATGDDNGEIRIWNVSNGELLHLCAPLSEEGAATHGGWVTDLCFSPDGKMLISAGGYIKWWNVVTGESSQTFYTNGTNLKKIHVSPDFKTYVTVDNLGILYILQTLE

[2] = target: Induced myeloid leukemia cell differentiation protein Mcl-1 (Homo sapiens, UniProt Q07820); type: functional
Caspase-3 = target: T2, Caspase-3 (Homo sapiens, UniProt P42574); type: functional;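 note: Dose-response selectivity test against caspase-3 for candidate inhibitors of sentrin-specific proteases (SENPs)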
T2 sequence (P42574 whole entry): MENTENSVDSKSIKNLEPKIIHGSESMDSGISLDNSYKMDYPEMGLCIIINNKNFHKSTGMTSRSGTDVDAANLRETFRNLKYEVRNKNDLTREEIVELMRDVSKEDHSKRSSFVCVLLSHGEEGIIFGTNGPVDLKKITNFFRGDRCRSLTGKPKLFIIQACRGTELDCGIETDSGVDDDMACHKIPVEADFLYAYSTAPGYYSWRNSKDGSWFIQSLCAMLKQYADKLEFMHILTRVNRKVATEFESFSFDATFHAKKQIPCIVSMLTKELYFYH

[3] = target: T3, Sentrin-specific protease 6 (Homo sapiens, UniProt Q9GZR1); type: functional;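 note: Luminescence-based dose-response confirmatory assay of SENP6 inhibition, following up an ultra-high-throughput screen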
T3 sequence (Q9GZR1 whole entry): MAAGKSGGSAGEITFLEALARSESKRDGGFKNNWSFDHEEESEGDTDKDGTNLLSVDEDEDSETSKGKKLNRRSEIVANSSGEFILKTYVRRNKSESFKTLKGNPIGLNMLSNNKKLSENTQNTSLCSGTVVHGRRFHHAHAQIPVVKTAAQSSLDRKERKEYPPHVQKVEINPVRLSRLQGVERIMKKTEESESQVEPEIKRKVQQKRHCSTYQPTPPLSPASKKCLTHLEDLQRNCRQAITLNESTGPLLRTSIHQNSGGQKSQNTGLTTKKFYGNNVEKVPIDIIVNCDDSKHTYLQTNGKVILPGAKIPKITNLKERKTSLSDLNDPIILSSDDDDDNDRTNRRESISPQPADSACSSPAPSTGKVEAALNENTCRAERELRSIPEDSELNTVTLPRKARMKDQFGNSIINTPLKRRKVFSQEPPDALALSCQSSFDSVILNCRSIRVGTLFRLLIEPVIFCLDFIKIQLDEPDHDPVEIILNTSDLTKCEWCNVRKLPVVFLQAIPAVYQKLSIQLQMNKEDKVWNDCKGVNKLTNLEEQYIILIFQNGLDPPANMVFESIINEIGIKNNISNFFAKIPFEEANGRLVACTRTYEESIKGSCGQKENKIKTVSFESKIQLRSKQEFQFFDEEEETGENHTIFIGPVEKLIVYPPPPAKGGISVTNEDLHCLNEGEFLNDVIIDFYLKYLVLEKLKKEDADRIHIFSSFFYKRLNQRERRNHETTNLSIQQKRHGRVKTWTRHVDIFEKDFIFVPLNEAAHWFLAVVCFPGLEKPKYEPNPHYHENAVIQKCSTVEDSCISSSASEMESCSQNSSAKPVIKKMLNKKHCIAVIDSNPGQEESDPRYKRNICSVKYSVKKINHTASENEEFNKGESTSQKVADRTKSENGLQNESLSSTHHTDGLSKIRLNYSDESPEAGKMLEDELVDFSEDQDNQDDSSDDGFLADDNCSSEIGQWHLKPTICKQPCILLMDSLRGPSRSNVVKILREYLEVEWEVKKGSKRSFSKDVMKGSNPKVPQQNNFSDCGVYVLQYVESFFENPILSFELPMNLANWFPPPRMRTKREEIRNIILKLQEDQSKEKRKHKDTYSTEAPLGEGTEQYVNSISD

[4] = target: T4, Tyrosyl-DNA phosphodiesterase 2 (Homo sapiens, UniProt O95551); experiment: potency against TDP2 phosphodiesterase activity – biochemical, epi absorbance, IC50, dose response (AID 743297)
T4 sequence (O95551 whole entry): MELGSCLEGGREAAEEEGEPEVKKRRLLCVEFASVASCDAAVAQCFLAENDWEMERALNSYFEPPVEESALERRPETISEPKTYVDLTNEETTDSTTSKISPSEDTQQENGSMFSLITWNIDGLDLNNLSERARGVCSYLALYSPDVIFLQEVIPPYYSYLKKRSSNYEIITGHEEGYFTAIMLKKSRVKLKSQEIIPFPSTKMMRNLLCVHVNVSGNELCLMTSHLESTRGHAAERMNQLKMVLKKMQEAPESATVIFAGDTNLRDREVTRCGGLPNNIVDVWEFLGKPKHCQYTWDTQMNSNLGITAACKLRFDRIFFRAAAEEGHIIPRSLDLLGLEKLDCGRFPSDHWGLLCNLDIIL

Chain of Induced myeloid leukemia cell differentiation protein Mcl-1 (Q07820 whole entry): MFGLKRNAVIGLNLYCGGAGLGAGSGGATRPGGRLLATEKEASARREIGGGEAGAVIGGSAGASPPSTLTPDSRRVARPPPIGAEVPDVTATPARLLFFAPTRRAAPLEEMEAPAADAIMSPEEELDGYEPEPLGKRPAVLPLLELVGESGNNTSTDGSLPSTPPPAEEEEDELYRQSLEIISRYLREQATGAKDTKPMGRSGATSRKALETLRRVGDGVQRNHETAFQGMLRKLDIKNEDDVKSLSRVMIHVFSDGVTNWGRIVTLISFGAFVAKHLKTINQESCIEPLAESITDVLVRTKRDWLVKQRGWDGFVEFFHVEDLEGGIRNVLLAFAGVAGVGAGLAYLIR

SMILES | IC50 [1] | IC50 [2] | IC50 (Caspase-3) | IC50 [3] | IC50 [4]
CCN1/C(=C/c2ccc3cc(C)ccc3[n+]2CC)Sc2cc(C)c(C)cc21 | 23.9 µM (active) |  |  |  | 
COc1ccc(C(=O)Nc2nc3c(s2)Cc2cc(OC)ccc2-3)cc1 | 51.1 µM (active) | 3.75 µM (active) | 3.45 µM (active) | 1.65 µM (active) | 11.2 µM (inactive)
Cc1oc2c(c1C(=O)c1ccccc1)C(=O)C(=O)c1ccccc1-2 |  |  | 29.3 µM (active) | 6.87 µM (active) | 14.2 µM (inactive)
O=C1CCCC2=C1C1(O)C(=O)c3ccccc3C1(O)O2 (configuration not stated) | 13.1 µM (active) |  |  |  | 8.01 µM (active)
O=C1C(Cl)=C(NCCN2CCCCC2)C(=O)c2ccccc21 | 5.4 µM (active) |  |  |  | 
O=C(O)COc1ccc(/C=N/NC(=O)c2ccc(-c3csc(Nc4ccc(Cl)cc4)n3)cc2)cc1 |  | 0.886 µM (active) |  |  | 
COc1cc(NCCCNC(C)C)c2nccc(C)c2c1 |  |  |  |  | > 128 µM (inactive)
CC(/C=C1\SC(=S)N(NS(=O)(=O)c2ccccc2)C1=O)=C\c1ccccc1 |  | 20.6 µM (active) | 7.87 µM (active) | 2.64 µM (active) | 
